Patent publication US8178486B2, “Method for promoting hair growth” (Animal Technology Institute Taiwan, priority 2005, dated 2012)

Tested on: hair follicles
Assay: Hair growth in 4-month old female mice, topical application to shaved dorsal skin
Type: in vivo
Experimental: The marked areas of the mice were applied by spreading topically on the exposed skin areas 60 μl of aqueous solutions of bovine lactoferrin (200 mg/ml), 60 μl of control vehicle (water), and 60 μl of bovine lactoferricin, obtained as set forth in Example 3, (200 mg/ml) twice daily. Observation for hair growth in the marked areas is made daily after the first treatment. […] The hair growth-promoting effect of lactoferrin or lactoferricin was consistently observed in all tested mice. Although lactoferricin was prepared by the method described in Example 3 above, the present invention should not be limited to use only lactoferricin prepared in such manner. Lactoferricin prepared by other methods would still fall within the scope of the present invention.

lactoferricin
amount of hair growth compared with area treated with lactoferrin of the same amount (200 mg/ml topically twice daily, 10 days): greater amount of hair growth | hair growth observed in the treated skin area (60 μl of 200 mg/ml topically twice daily, after 10 days, not seen with control vehicle): prominent hair growth
